The source of these data is patent US11786534B2 (TAIHO PHARMACEUTICAL CO., LTD., priority 2019, dated 2023).

Structures are written as SMILES. Where two headings read alike, the source gives them in different places.

One test addresses T1, human EGFR (L858R/C797S) (Homo sapiens, UniProt P00533, C797S/L858R).
T1 construct: purchased SignalChem
In words: Inhibitory activity against EGFR (L858R/C797S) kinase. The settings on record: Test Example 1, Table 5; ATP 4 μM, 90 minutes. The format is biochemical. The procedure, abridged: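 Purified recombinant human EGFR (C797S/L858R) kinase, final ATP 4 μM, 90-minute kinase reaction, otherwise per the EGFR (d746-750/C797S) protocol. IC50 (nM) determined from inhibition data.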

The target in a further test is T2, human EGFR (WT) (Homo sapiens, UniProt P00533).
T2 construct: purchased Carna Biosciences Inc., Japan
The experiment in a line: Inhibitory activity against EGFR (WT) kinase. It counts as biochemical. As to conditions: Test Example 1, Table 6; ATP 1.5 μM. The procedure, abridged: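 Purified recombinant human wild-type EGFR kinase, with ATP at 1.5 μM final. Compound inhibition of kinase activity read out and fitted to give IC50 (nM).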

Test [1] deals with Ba/F3-EGFR (d746-750/T790M/C797S) (Homo sapiens, UniProt P00533, DEL746-750/T790M/C797S, cells depend on it). In words: Growth inhibition of cell line expressing EGFR (d746-750/T790M/C797S). The format is cell-based, mouse. The settings on record: read-out: BaF3_EGFR (d746-750/T790M/C797S) IC50 value. From the text:
Test for inhibitory activity against the growth of cell lines expressing wild-type and mutated EGFRs (in vitro)
(1) Mouse cell line Ba/F3-EGFR (d746-750/T790M/C797S) transfected with and stably expressing EGFR (d746-750/T790M/C797S), mouse cell Ba/F3-EGFR (L858R/T790M/C797S) transfected with and stably expressing EGFR (L858R/T790M/C797S), and mouse cell line Ba/F3-EGFR (WT) transfected with and stably expressing wild-type EGFR were each suspended in RPMI-1640 cell culture medium (RPMI-1640, 10% FBS, 100 unit/ml penicillin, 0.1 mg/ml streptomycin). In the case of the mouse cell line Ba/F3-EGFR (WT), RPMI-1640 cell culture medium containing EGF at a final concentration of 50 ng/ml was used to suspend this cell line. It should be noted that the mouse cell line Ba/F3-EGFR (d746-750/T790M/C797S) transfected with and stably expressing EGFR (d746-750/T790M/C797S), the mouse cell line Ba/F3-EGFR (L858R/T790M/C797S) transfected with and stably expressing EGFR (L858R/T790M/C797S) and the mouse cell line Ba/F3-EGFR (WT) transfected with and stably expressing wild-type EGFR were prepared by using nucleotide sequences encoding the proteins of SEQ ID NOs: 1 and 2 in accordance with Test Example 1 in WO2018/079310, These cell suspensions were seeded in wells of 96-well flat -bottomed plates. The compounds of the present invention were dissolved in DMSO, and serial dilutions of these test compounds were prepared with DMSO (1000-fold of the final concentration). Each test compound solution in DMSO or DMSO alone was diluted with RPMI-1640 cell culture medium for each cell line, and this dilution was added to wells of the cell culture plate such that the final concentration of DMSO was 0.1%, followed by culture at 37° C. for 3 days in a 5% carbon dioxide gas-containing incubator. Before and after addition of each test compound solution in DMSO, the number of cells was counted using the CellTiter-Glo® system (Promega) on the basis of the protocol recommended by Promega.
In each cell line, the rate of cell growth inhibition was calculated according to the equation shown below in wells to which each test compound was added at different concentrations. Moreover, the inhibition rate at each concentration was plotted for each test compound, and the concentration of each test compound required to give 50% cell survival rate, i.e., IC50 (nM) was determined by curve fitting software XLfit (IDBS).
Cell survival rate (%)=T/C×100
T: emission intensity in a well cultured for 3 days after addition of a test compound solution
C: emission intensity in a well cultured for 3 days after addition of DMSO
In accordance with the same procedures as shown in Test Example 2, the compounds of the present invention were tested for their inhibitory activity against the growth of the cell hoes expressing wild-type and mutated EGFRs.

The mark [2] stands for this setting: Test Example 2, Table 7, culture 3 days, CellTiter-Glo.
[3] abbreviates: Test Example 4, Table 13, same procedures as Test Example 2.

Ba/F3-EGFR (d746-750/T790M/C797S), sequence (P00533 with tags, fused parts or gaps DEL746-750/T790M/C797S): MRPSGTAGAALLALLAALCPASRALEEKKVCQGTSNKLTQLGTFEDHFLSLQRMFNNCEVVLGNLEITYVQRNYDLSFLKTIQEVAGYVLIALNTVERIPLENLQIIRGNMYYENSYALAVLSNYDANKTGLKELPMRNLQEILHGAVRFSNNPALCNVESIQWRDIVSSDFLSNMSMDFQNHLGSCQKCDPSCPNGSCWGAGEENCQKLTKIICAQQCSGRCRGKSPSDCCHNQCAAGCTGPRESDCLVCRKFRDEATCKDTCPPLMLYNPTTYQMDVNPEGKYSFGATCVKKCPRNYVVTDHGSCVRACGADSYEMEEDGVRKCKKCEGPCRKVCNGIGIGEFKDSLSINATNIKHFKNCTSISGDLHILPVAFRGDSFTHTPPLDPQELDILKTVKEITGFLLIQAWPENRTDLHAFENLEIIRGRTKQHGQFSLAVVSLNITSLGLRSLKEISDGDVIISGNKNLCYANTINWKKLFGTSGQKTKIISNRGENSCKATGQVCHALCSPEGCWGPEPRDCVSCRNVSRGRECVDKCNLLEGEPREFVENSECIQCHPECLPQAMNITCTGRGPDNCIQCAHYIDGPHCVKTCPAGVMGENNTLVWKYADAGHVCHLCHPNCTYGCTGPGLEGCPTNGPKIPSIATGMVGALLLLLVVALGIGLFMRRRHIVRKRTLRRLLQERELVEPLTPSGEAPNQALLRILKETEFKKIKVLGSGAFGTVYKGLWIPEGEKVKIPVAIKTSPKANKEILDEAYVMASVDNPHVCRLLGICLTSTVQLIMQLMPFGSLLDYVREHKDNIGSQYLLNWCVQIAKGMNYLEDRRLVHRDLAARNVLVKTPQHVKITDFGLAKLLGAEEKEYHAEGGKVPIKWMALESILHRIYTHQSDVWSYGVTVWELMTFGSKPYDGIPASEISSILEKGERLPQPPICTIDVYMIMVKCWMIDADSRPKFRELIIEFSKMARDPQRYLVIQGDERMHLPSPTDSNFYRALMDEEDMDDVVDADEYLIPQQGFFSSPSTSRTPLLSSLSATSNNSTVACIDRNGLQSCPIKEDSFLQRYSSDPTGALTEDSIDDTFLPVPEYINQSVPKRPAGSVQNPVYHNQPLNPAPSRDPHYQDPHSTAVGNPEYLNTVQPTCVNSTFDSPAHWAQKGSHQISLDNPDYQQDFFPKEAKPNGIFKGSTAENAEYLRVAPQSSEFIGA
T2 sequence (P00533 25-1210): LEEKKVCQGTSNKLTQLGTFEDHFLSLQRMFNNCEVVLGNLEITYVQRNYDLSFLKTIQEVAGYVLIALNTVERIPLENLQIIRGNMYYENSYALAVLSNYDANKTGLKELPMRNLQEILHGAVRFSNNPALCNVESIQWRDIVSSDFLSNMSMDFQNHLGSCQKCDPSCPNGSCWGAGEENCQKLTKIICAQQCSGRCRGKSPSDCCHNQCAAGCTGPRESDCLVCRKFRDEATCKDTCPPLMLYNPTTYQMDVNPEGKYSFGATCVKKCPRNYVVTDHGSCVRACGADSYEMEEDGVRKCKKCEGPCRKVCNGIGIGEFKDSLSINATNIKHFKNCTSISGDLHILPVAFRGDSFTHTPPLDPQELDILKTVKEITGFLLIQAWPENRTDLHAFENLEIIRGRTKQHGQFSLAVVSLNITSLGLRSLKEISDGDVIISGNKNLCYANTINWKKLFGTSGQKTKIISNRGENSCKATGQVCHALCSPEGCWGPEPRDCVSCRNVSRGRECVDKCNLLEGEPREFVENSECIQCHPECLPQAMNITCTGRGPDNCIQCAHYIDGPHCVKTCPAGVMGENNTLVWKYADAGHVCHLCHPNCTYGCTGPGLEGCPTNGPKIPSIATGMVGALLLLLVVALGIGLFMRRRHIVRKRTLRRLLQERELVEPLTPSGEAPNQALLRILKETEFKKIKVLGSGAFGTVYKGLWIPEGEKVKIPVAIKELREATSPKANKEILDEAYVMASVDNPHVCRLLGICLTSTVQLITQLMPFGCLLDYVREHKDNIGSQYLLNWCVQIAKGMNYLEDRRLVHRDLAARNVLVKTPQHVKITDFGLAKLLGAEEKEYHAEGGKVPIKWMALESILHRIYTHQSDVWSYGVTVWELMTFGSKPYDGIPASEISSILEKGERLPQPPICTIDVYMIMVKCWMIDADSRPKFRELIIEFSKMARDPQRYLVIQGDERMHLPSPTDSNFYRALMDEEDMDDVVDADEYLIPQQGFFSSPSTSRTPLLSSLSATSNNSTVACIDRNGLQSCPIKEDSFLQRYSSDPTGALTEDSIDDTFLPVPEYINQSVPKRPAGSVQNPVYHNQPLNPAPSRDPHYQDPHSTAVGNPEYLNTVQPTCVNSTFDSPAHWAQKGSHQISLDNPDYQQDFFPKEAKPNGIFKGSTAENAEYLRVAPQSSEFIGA
T1 sequence (P00533 25-1210 C797S/L858R): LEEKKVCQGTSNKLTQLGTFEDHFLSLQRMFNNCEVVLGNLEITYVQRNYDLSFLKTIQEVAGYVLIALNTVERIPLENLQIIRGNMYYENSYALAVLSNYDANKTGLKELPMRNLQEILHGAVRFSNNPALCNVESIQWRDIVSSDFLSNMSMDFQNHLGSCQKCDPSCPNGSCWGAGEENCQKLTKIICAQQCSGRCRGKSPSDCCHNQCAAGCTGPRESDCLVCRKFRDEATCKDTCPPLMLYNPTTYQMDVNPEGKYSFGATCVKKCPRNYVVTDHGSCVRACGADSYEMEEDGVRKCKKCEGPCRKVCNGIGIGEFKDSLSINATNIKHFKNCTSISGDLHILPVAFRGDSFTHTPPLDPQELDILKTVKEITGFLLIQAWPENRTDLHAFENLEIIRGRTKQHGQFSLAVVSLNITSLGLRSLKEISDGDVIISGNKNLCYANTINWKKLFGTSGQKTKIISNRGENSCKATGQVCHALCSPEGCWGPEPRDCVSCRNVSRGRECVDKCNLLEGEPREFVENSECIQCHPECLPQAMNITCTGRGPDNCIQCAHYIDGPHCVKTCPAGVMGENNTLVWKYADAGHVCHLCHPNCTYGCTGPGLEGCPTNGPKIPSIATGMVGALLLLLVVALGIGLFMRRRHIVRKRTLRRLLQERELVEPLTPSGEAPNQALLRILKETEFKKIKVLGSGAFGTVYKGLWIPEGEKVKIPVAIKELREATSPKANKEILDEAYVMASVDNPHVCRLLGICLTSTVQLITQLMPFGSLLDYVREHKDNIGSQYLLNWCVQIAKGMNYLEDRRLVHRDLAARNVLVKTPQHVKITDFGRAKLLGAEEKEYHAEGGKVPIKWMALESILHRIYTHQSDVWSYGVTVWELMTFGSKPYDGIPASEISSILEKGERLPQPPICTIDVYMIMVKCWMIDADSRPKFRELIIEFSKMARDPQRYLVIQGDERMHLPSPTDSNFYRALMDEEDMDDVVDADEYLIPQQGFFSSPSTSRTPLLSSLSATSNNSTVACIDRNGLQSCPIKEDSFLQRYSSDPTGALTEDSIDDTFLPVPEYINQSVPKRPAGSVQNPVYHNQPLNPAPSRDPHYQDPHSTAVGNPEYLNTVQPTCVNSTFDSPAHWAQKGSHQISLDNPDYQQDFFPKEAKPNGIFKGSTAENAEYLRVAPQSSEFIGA

Turning to `C#Cc1c(-c2cnc3ccccc3c2)c2c(N)ncnc2n1C12CCC(NC(=O)c3cnc(C)cn3)(CC1)C2` [Example 37, N-(4-(4-Amino-6-ethynyl-5-(quinolin-3-yl)-7H-pyrrolo[2,3-d]pyrimidin-7-yl)-bicyclo-[2.2.1]heptan-1-yl)-5-methylpyrazine-2-carboxamide], the half-maximal inhibitory concentration (IC50) came out at 0.69 nM against human EGFR (L858R/C797S) and 0.92 nM against human EGFR (WT). In test [1] (setting [2]), the GI50 turned out to be 21 nM.

Take `C#Cc1c(-c2cnc3ccccc3c2)c2c(N)ncnc2n1C12CCC(NC(C)=O)(CC1)C2` [Example 39, N-(4-(4-Amino-6-ethynyl-5-(quinolin-3-yl)-7H-pyrrolo[2,3-d]pyrimidin-7-yl)-bicyclo-[2.2.1]heptan-1-yl)acetamide]: the values for the half-inhibitory concentration (IC50) on human EGFR (L858R/C797S) and on human EGFR (WT) were 1.4 nM and 1.5 nM, respectively. In test [1] (setting [3]), the GI50 is 98 nM.

On to `C#Cc1c(-c2cnc3ccccc3c2)c2c(N)ncnc2n1C12CCC(NC(=O)c3ccco3)(CC1)C2` [Example 41], for which the concentration for half-maximal inhibition (IC50) at human EGFR (L858R/C797S) came to 1.9 nM; against human EGFR (WT), 2.1 nM. Also, the GI50 in test [1] (setting [3]) amounted to 102 nM.

In the case of `C#Cc1c(-c2cnc3ccccc3c2)c2c(N)ncnc2n1C12CCC(NC(=O)c3ccncc3)(CC1)C2` [Example 43], the IC50 was found to be 0.49 nM on human EGFR (L858R/C797S) and 1.7 nM against human EGFR (WT). The GI50 in test [1] (setting [2]) is 57 nM.

Turning to `C#Cc1c(-c2cnc3ccccc3c2)c2c(N)ncnc2n1C12CCC(NC(=O)c3ccno3)(CC1)C2` [Example 44], the 50% inhibitory concentration (IC50) was 0.94 nM on human EGFR (L858R/C797S) and 0.8 nM on human EGFR (WT). For the same compound, in test [1] (setting [3]), the GI50 came to 30 nM.

Turning to `C#Cc1c(-c2cnc3ccccc3c2)c2c(N)ncnc2n1C12CCC(NC(=O)c3cccnc3)(CC1)C2` [Example 45], the 50% inhibitory concentration (IC50) came out at 0.53 nM at human EGFR (L858R/C797S) and 1.9 nM at human EGFR (WT). The GI50 in test [1] (setting [2]) was determined as 42 nM.

On to `C#Cc1c(-c2cnc3ccccc3c2)c2c(N)ncnc2n1C12CCC(NC(=O)c3ncco3)(CC1)C2` [Example 46], for which the IC50 on human EGFR (L858R/C797S) worked out at 0.43 nM; at human EGFR (WT), 0.79 nM. Also, the GI50 in test [1] (setting [2]) came to 19 nM.

Turning to `C#Cc1c(-c2cnc3ccccc3c2)c2c(N)ncnc2n1C12CCC(NC(=O)c3cnccn3)(CC1)C2` [Example 48], the half-maximal inhibitory concentration (IC50) against human EGFR (L858R/C797S) turned out to be 0.6 nM; against human EGFR (WT), 0.75 nM. Further, the GI50 in test [1] (setting [2]) came out at 24 nM.

For the compound `C#Cc1c(-c2cnc3ccccc3c2)c2c(N)ncnc2n1C12CCC(NC(=O)c3cccnn3)(CC1)C2` [Example 49], the results for the half-maximal inhibitory concentration (IC50) at human EGFR (L858R/C797S) and on human EGFR (WT) were 0.63 nM and 0.86 nM, respectively. The GI50 in test [1] (setting [2]) worked out at 19 nM.

Take `C#Cc1c(-c2cnc3ccccc3c2)c2c(N)ncnc2n1C12CCC(NC(=O)c3nccs3)(CC1)C2` [Example 53]: the IC50 turned out to be 1.2 nM at human EGFR (L858R/C797S) and 1.9 nM against human EGFR (WT). For the same compound, the GI50 in test [1] (setting [3]) came out at 162 nM.

A word on the IC50: it is the concentration that inhibits the measured activity by half. A high value points to a need for much substance.
